Assay results reported in US6413938B1, “Benzimidazole derivatives for the treatment of viral infections” (The Regents of the University of Michigan, priority 1997, dated 2002).

Test system: HCMV strain AD169
Experiment: Human Cytomegalovirus Assay
Type: cell-based
Conditions: Human betaherpesvirus 5, 120 h; HCMV strain AD169 on MRC5 cell monolayers, 5 days, HCMV DNA by blotting and hybridization
Procedure: HCMV strain AD169 was grown on monolayers of human embryonic lung cells (MRC5 cells) in 96 well plates. After infection of the cells at a ratio of approximately 0.01 infectious virus particles per cell; the compounds to be tested were added to selected wells at six different concentrations, each in triplicate. The same concentrations of compounds were also applied to wells containing monolayers of uninfected cells in order to assess compound cytotoxicity. The plates were incubated for 5 days, and the minimum cytotoxic dose was estimated from microscopic examination. The IC50 for antiviral effect was estimated from measurements of HCMV DNA in each well by blotting and quantitative specific DNA hybridization, similar to the method of Gadler (Antimicrob. Agents Chemother. 1983, 24, 370-374).

SMILES | IC50 [µM]
C[C@H]1O[C@@H](n2c(NC3CC3)nc3cc(Cl)c(Cl)cc32)[C@H](O)[C@@H]1O [Example 59, 5,6-Dichloro-1-(5-deoxy-beta-D-ribofuranosyl)-N-(cyclopropyl)-1H-benzimidazol-2-amine] | 1.1
CC(C)Nc1nc2ccc(C(F)(F)F)cc2n1[C@@H]1O[C@H](C)[C@@H](O)[C@H]1O [Example 46, 6-trifluoromethyl-1-(5-Deoxy-beta-D-ribofuranosyl)-N-(1-methylethyl)-1H-benzimidazol-2-amine] | 6.1
CC(C)Nc1nc2ccc(Cl)cc2n1[C@@H]1O[C@H](C)[C@@H](O)[C@H]1O [Example 50, 6-Chloro-1-(5-deoxy-β-D-ribofuranosyl)-N-(1-methylethyl)-1H-benzimidazol-2-amine] | 7
CC(C)Nc1nc2c(Cl)cc(Cl)cc2n1[C@@H]1O[C@H](C)[C@@H](O)[C@H]1O [Example 9, 4,6-Dichloro-1-(5-deoxy-beta-D-ribofuranosyl)-N-(1-methylethyl)-1H-benzimidazol-2-amine] | 6.9
CC(C)Nc1nc2c(Cl)c(Cl)ccc2n1[C@@H]1O[C@H](C)[C@@H](O)[C@H]1O [Example 12, 4,5-Dichloro-1-(5deoxy-beta-D-ribofuranosyl)-N-(1-methylethyl)-1H-benzimidazol-2-amine] | 3.5
CC(C)Nc1nc2cc(C(F)(F)F)ccc2n1[C@@H]1O[C@H](C)[C@@H](O)[C@H]1O [Example 44, 5-Trifluoromethyl-1-(5-Deoxy-beta-D-ribofuranosyl)-N-(1-methylethyl)-1H-benzimidazol-2-amine] | 7

Test system: not given
Experiment: not given
Conditions: not given

melting point [°C] | SMILES
120 to 122 | C[C@H]1O[C@H](n2c(Cl)nc3cc(Cl)c(Cl)cc32)[C@@H](O)[C@H]1O [Example 72, 2,5,6-Trichloro-1-(5-deoxy-α-D-lyxofuranosyl)1H-benzimidazole]
145 to 148 | C[C@H]1O[C@@H](n2c(Br)nc3cc(Cl)c(Cl)cc32)[C@H](O)[C@@H]1O [Example 73, 2-Bromo-5,6-dichloro-1-(5-deoxy-β-D-ribofuranosyl)benzimidazole]
148 to 151 | CC(C)Nc1nc2c(F)c(F)c(F)cc2n1[C@@H]1O[C@H](C)[C@@H](O)[C@H]1O [Example 19, 4,5,6-Trifluoro-1-(5-deoxy-beta-D-ribofuranosyl)-N-(1-methylethyl)-1H-benzimidazol-2-amine]
138 to 141 | CC(=O)O[C@@H]1[C@H](OC(C)=O)[C@@H](C)O[C@H]1n1c(Cl)nc2c(Br)c(Cl)c(Cl)cc21 [Example 70, 4-Bromo-2,5,6-trichloro-1-(2,3-di-O-acetyl-5-deoxy-beta-D-ribofuranosyl)-1H-benzimidazole]
160 to 162 | CC(=O)O[C@@H]1[C@H](OC(C)=O)[C@@H](C)O[C@H]1n1c(Br)nc2c(Cl)c(Cl)c(Cl)cc21 [Example 69, 2-Bromo4,5,6-trichloro-1-(2,3-di-O-acetyl-5-deoxy-beta-D-ribofuranosyl)-1H-benzimidazole]
126 to 127 | CC(=O)O[C@@H]1[C@H](OC(C)=O)[C@@H](C)O[C@H]1n1c(Cl)nc2c(Cl)c(Cl)c(Cl)cc21 [Example 68, 2,4,5,6-Tetrachloro-1-(2,3-di-O-acetyl-5-deoxy-beta-D-ribofuranosyl)-1H-benzimidazole]
133 to 135 | C[C@H]1O[C@@H](n2c(Br)nc3cc(Cl)c(Cl)cc32)[C@H](O)[C@@H]1O (hydrate or solvate) [Example 4, 2-Bromo-5,6-dichloro-1-(5-deoxy-beta-D-ribofuranosyl)-1H-benzimidazole]
152 to 154 | CC(=O)O[C@@H]1[C@H](OC(C)=O)[C@@H](C)O[C@H]1n1c(Br)nc2c(Br)c(Cl)c(Cl)cc21 [Example 71, 2,4-Dibromo-5,6-dichloro-1-(2,3-di-O-acetyl-5-deoxy-beta-D-ribofuranosyl)-1H-benzimidazole]
175 to 178 | CC(C)Nc1nc2cc(F)c(F)c(F)c2n1[C@@H]1O[C@H](C)[C@@H](O)[C@H]1O [Example 20, 5,6,7-Trifluoro-1-(5-deoxy-beta-D-ribofuranosyl)-N-(1-methylethyl)1H-benzimidazol-2-amine]
